Here are results for 5 molecules from patent publication US20060135587A1, “Method and compounds for promoting healing and reducing inflammation” (priority 2002, published 2006).

Read-outs that look alike come from different tables or passages of the source.

For series [1], the system named is experimental granuloma. The experiment in a line: Cotton-wool granuloma (chronic proliferative inflammation) in rats. The class given is in vivo. Here is the method:
We investigated the ability of compound (2) to reduce the formation of granulation tissue in the inflammatory focus which develops at the site at which a non-sterile cotton-wool roll weighing 40 mg is implanted subcutaneously (Swingle and Shideman, 1972). Compound (2) was administered orally to male rats weighing 130-150 g at a dose of 100 mg/kg for 6 days before the cotton-wool roll was implanted, and then for 6 days at the same dose while the granuloma developed. Anti-inflammatory agents, such as ibuprofen and butadione, were used for comparison, using the same procedure. There were 10 rats in each group.
After 12 days the experiment was terminated, and the granulomas were excised, weighed, and the wet weight of the granulation tissue was measured. The dry mass of the granuloma was measured after drying for 24 hours at 70° C., and the exudative and proliferative stages of the granulomas were calculated. Statistical analysis was performed using the Student's parametric test.

The conditions of series [2]: oral dose used for the comparative medication; cited from earlier work.
Series [3] concerns liver after partial hepatectomy. The experiment in a line: Morphological study of the liver after partial hepatectomy. The note with it: 0.2 MM/kg; one week after hepatectomy. The class given is in vivo, rats. Here is the method:
Morphological methods are highly informative in the assessment of repair processes. Histological tests of the liver after partial hepatectomy were performed using generally accepted methods. Microscopic sections were stained with hematoxylin and eosin using Van Gieson's methodology. Liver tests after partial hepatectomy were performed on 8 groups of animals, totalling 37 rats. All animals were examined one week after hepatectomy.

Series [4] concerns regeneration of liver after partial hepatectomy. The experiment in a line: Liver regeneration after partial hepatectomy in rats. It is filed as in vivo. As to conditions: for Catalase E activity / DNA content (in mg/g of tissue) / Protein content / RNA content (mg/g of tissue) / SOD activity: 0.2 mM/kg; for Level of recovery: 0.2 mM/kg intraperitoneally, 7 days, hepatectomy alone = 100. Here is the method:
Partial hepatectomy was performed using the conventional method (Higgins and Anderson, 1931) by removing the left lateral and central lobes of the liver from 80 male white rats, weighing 180-200 g.
Compound 2, Compound 4, Compound 5 or Compound 6 was administered to the experimental groups intraperitoneally in equimolar doses of 0.1 mM/kg and 0.2 mM/kg. These optimal doses were determined in preliminary experiments. The control group received intraperitoneal injections of saline solution. The compounds were administered on the day after the operation and then one injection was given daily over the course of 7 days, since maximum growth of the liver mass in rats is observed in the first 7 days after partial hepatectomy (Solopaev, 1980).
The effectiveness of the compounds was compared to that of a combination of non-steroid anabolic regeneration stimulators which are used in the treatment of liver pathology, namely Riboxin and potassium orotate at a dose of 0.2 mM/kg each (Rychnev and Frolov, 1984).
For quantitative evaluation of the regeneration process in the liver the coefficient of regeneration completion as determined by the formula below was used: [formula] where
Stimulation of the regeneration of tissue after hepatectomy in response to different medicinal preparations is associated with an increase in the synthesis of nucleic acids, as indicated by the increase in the content of RNA and DNA in the regenerated tissue. Quantitative analysis of DNA and RNA was performed by centrifugation. […] The enzymic component of anti-oxidant protection was also assessed on the basis of the activity of catalase and superoxidedismutase (SOD).
5 ml of […] of HCIO4 solution were added to the sample (100 mg). In order to ensure complete sedimentation of the acid-insoluble fraction, the beakers were put in ice for 15 minutes. Then they were centrifuged for 10 minutes at 5000 revolutions per minute. The sediment was washed twice with 0.2 M HCIO4. After the final centrifugation, the walls of the beaker were carefully dried with gauze and filter paper. The sediment was ground down with a glass pestle, suspended in 1 ml of water and then 1 ml of 0.6 M KON solution was added at room temperature. Hydrolysis was performed over the course of 1 hour at 37° C., then the beakers were put in ice to stop the hydrolysis process. 4 ml of the 0.6 M solution were added to each beaker and the beakers were left in ice for another 15 minutes, then centrifuged for 15 minutes at 5000 revolutions per minute. The supernatant was used to determine the RNA by UV absorption at 260 nm and 290 nm compared to the control sample containing 0.4M of HCIO4). The amount of RNA in μg per 1 ml of the supernatant was calculated using the following formula: [formula] where C=is the RNA concentration (μg/ml)
DNA analysis was carried out on the sediment remaining after the alkaline hydrolysis used to determine RNA. 0.5 M of HCIO4 (5 ml per sample) was poured into the dried beaker containing the sediment. Hydrolysis was performed in a boiling water bath for 20 minutes. The amount of DNA in μg per 1 ml of the hydrolysate was calculated using the following formula: [formula] where C=is the DNA concentration (μg/ml). Catalase Activity
Catalase activity was determined using the permanganate method. The optimal amount of the substrate (3 ml of 1% H2O2) and 1 ml of the enzyme were added to 10 ml of phosphate buffer, pH 7.8. After 10 minutes the reaction was stopped by adding 1.5 ml of H2SO4 (50%). The remaining hydrogen peroxide was filtered with 0.1M of KMnO4 solution. Catalase activity was calculated on the basis that 1 ml of 0.1M of KMnO4 solution corresponds to […] of H2O2.
SOD activity was determined using the dianisidine method, which is based on the fact that under ultraviolet irradiation Riboflavin (Rb) is converted to an excited (ionised) state and therefore becomes able to attack reduced dianisidine (DH2). […]

Series [5] relates to cryogenic injuries of the sigmoid colon. The experiment in a line: Cryogenic damage of the colon, model of ulcerative colitis. It is filed as in vivo, rats. As to conditions: oral. The procedure:
A model of cryogenic damage of the colon was used in this experiment to simulate ulcerative colitis. Cryogenic injuries of the sigmoid colon of rats were induced by pressing a metal rod of […] in diameter cooled in liquid nitrogen to the serous membrane of the colon for 10 seconds under ether anaesthesia.
Tests were performed on 67 male rats weighing 180-200 g, with 8 animals in each group. Animals were kept in separate cages, with normal food and water ad libitum. The test compounds were administered orally on the second day after the operation, and then daily until healing was complete. Compound 2 or Compound 6 was administered to test animals at a dose of 20-50 mg/kg. The following agents were used for comparison:
The nature of the healing of the ulcer injury was examined morphologically on days 1, 3 and 7. […] The inflammatory process extends beyond the injured area into the adjacent areas, and beyond the peritoneum into fatty connective tissue.

Series [6] has as its system white male mice.
Method: The acute toxicity of 1,3-dialkyl-4,5-bis (N-methylcarbamoyl)imidazolium salts was assessed following intraperitoneal injection into 200 white male mice weighing 18 to 20 g. Dead animals were counted daily after the administration of the test substance.
In series [7] the test system is cryogenic ulcer of the gastric mucosa. The series is described as follows: Cryogenic gastric ulcer in rats. As to conditions: healing effect over the course of 14 days; twice daily, oral. It is filed as in vivo. Here is the method:
(§1) The models used gastric ulcers induced by
c) Ulcer created by local wounding with a cryogenic probe using a method similar to that described above for mouth ulcers.
(§2) The compounds were administered intraperitoneally at a dose of 20 mg/kg; in the cryogenic ulcer model compound 2 was administered either intraperitoneally (10 mg/kg) or orally (20 mg/kg twice daily, ie. a total of 40 mg/kg/day) and was compared to orally-administered gastrocepin (1 mg/kg twice daily, ie. a total of 2 mg/kg/day).

Series [8] has as its system gastric secretory function. The series is described as follows: Gastric secretory function, chronic or acute tests. It is filed as in vivo. As to conditions: dogs or rats.
The subject of series [9] is acute Con A-induced inflammation. The series is described as follows: Acute Con A-induced inflammation (paw oedema) in mice. The class given is in vivo. As to conditions: Table 3, male CBA mice. Here is the method: Saline solution was similarly administered to the control animals. There were 10 mice in each group. After one hour, con A at a dose of 100 mkg/20 g of body weight was administered by sub-plantar injection into the plantar aponeurosis of the left paws of mice of both the experimental and control groups. The same amount of saline splution was injected into the contralateral paws. After one hour, the mice were killed and the experimental and control paws were weighed to assess the reaction index of the inflammation in the ankle-joint (Liubimov et al, 1999).
The anti-inflammatory effect of Compound 2 and Compound 7 was compared in male mice weighing 18-22 g, using the model described in Example 9. The ED50, i.e. the dose reducing paw ooedema by 50% one hour after injection of Concanavalin A, was calculated.

Series [10] concerns lesions of the gastric mucosa. The series is described as follows: Gastric lesions induced by immobilization and hypothermia. As to conditions: Protective effect, 30 minutes before the test. The arrangement: % reduction of degree of ulceration / % reduction of ulcerated area: concentration or dose not given beside the values. It is filed as in vivo, rats. Here is the method: as §1
b) Immobilization and hypothermia (induced by water cooling);
as §2

For series [11], the system named is lesions of the gastric mucosa. The series is described as follows: Gastric lesions induced by electrostimulation of immobilised rats. It is filed as in vivo. The procedure:
as §1
a) Electrostimulation of immobilised rats for 3 hours;
as §2

Series [12] concerns carrageenin-induced inflammation. The series is described as follows: Carrageenin-induced inflammation in intact and adrenalectomized rats. It is filed as in vivo. Here is the method: An acute inflammatory oedema was induced in intact and adrenalectomized male rats weighing 180-200 g by sub-plantar injection of 0.1 ml of 1% carrageenin solution into the left paw (Winter et al., 1962). The same volume of saline solution was injected into the contralateral paw. […] There were 10 rats in each group.
The degree of carrageenin-induced inflammation of the ankle joints was assessed at 3 hours after the induction of the inflammation, on the basis of the change in weight of the experimental and control paws (reaction index).

[13] abbreviates: 50 mg/kg intra-peritoneally one hour before Con A.
[14] abbreviates: Healing effect over the course of 3 days.
Setting [15] is: Protective effect, 30 minutes before the test.
[16] abbreviates: Adrenalectomized animals, 48 mg/kg orally 4 days + carrageenin.

Broadly, the LD50 is the dose at which mortality reaches 50%.

With `CCCCC1C(=O)N(c2ccccc2)N(c2ccccc2)C1=O` [Butadione], in series [1] (60 mg/kg), the “Granuloma weight (mg) Dry weight” value was 145.4 ± 7.45 mg, the “Granuloma weight (mg) Exudative stage” value came out at 682.6 mg, the “Granuloma weight (mg) Fresh weight” value was 828.0 ± 76.68 mg and the “Granuloma weight (mg) Proliferative stages” value is listed as 105.4 mg. For the same molecule, the “ED50 values from the literature” value in series [2] is 60 mg/kg.
For “1-methyl-3-ethyl-4,5-bis(N-methylcarbamoyl)-imidazolium salicylate [Compound 6]”, the “histological findings in the liver” value in series [3] was “showed no undesirable effects”. Besides, in [4], the “Catalase E activity” value came out at 20.0 ± 2.7 μgM/min/g tissue × 1000, the “DNA content (in mg/g of tissue)” value was 3.88 ± 0.17 mg/g of tissue, the Protein content turned out to be 93.0 ± 14.0 Mg/g tissue and the “RNA content (mg/g of tissue)” value is 7.41 ± 0.16 mg/g of tissue. Also, in [4], the SOD activity is 100.0 ± 4.7 Units/g tissue and the Level of recovery turned out to be 105.0. Also, in series [5], the “indicators of healing relative to Compound 2” value is “less pronounced”.
“1,3-diethyl-4,5-bis(N-methylcarbamoyl)-imidazolium benzenesulfonate [Compound 3]”: the LD50 entry is on record as “over 500 mg/kg” in series [6] and 1292 mg/kg in series [6] (intraperitoneal injection, white male mice, 14 days observation). Also, the toxicity result in [6] is on record as “very low toxicity”. Also, the “% reduction of degree of ulceration” value in series [7] is on record as 59%; in series [10], 41%; in [11] (setting [14]) it was 26.5%; in [11] (setting [15]) it was 50%. Also, the “Average number of lesions per animal” value in series [7] amounted to 7.7 ± 2.5; in series [10] (20 mg/kg intraperitoneally), 6.8 ± 1.4; in series [11] (setting [14]) it was 2.5 ± 0.4; in series [11] (Protective effect, 30 minutes before the test, 20 mg/kg intraperitoneally), 3.5 ± 0.4. Further, the “effect on gastric secretory function” value in series [8] is “did not affect gastric secretory function”. In addition, the “Reaction index (%)” value in series [9] (10 mg/kg intra-peritoneally one hour before Con A) is 9.5 ± 2.5 %; in series [9] (setting [13]), 9.5 ± 2.0 %. Besides, the “% reduction of ulcerated area” value is listed as 41% in series [10] and 54% in [11] (setting [15]). The Area of lesion is recorded as 7.2 ± 2.0 in series [10] and 7.1 ± 4.1 in series [11] (setting [15]).
For the molecule `CC(C)Cc1ccc(C(C)C(=O)O)cc1` (stereo not drawn) [Ibuprofen, ibuprofen], in [1] (48 mg/kg), the “Granuloma weight (mg) Dry weight” value is on record as 143.2 ± 9.83 mg, the “Granuloma weight (mg) Exudative stage” value came out at 670.8 mg, the “Granuloma weight (mg) Fresh weight” value was found to be 814.0 ± 63.72 mg and the “Granuloma weight (mg) Proliferative stages” value worked out at 103.2 mg. Further, the “ED50 values from the literature” value in series [2] is recorded as 48 mg/kg. In addition, in series [12] (48 mg/kg 4 days + carrageenin), the “Inhibition of oedema(%)” value is 63.39% and the “Reaction index (%)” value came to 15.88 ± 1.88 %. In series [12] (setting [16]), the “Inhibition of oedema(%)” value amounted to 57.90% and the “Reaction index (%)” value is recorded as 18.12 ± 1.82 %.
For the molecule `CC[n+]1cn(C)c(C(=O)NC)c1C(=O)NC.O=C([O-])c1ccccc1` [Compound 5, 1-methyl-3-ethyl-4,5-bis(N-methylcarbamoyl)-imidazolium benzoate], the “histological findings in the liver” value in [3] is listed as “some of the animals demonstrated hepatocyte hypertrophy combined with subacute hepatitis”. Besides, in series [4], the “Catalase E activity” value came out at 17.3 ± 2.6 μgM/min/g tissue × 1000, the “DNA content (in mg/g of tissue)” value is recorded as 3.76 ± 0.29 mg/g of tissue, the Protein content is 86.8 ± 6.9 Mg/g tissue and the “RNA content (mg/g of tissue)” value is 7.46 ± 0.14 mg/g of tissue. In series [4], the SOD activity is 103.0 ± 4.4 Units/g tissue and the Level of recovery is on record as 120.3. Also, in series [9] (setting [13]), the “Reaction index (%)” value is recorded as 7.2 ± 1.8 %.
